Experimental data reported in ChEMBL document CHEMBL4043136, “Chiral-pool synthesis of 1,2,4-trisubstituted 1,4-diazepanes as novel σ1 receptor ligands” (Bioorg Med Chem, 2017).
Active and inactive are the calls of the source. The rule behind the calls is not given here.

How the values were obtained:
[1] = species: Homo sapiens; test: Displacement of [3H]-Idazoxan from imidazoline I2 receptor (unknown origin) at 1 uM
[2] = target: Histamine H3 receptor (Homo sapiens) (UniProt Q9Y5N1); test: Displacement of [3H]-R(-)-alpha-methylhistamine from histamine H3 receptor (unknown origin) at 1 uM
[3] = target: Alpha-1A adrenergic receptor (Homo sapiens) (UniProt P35348); test: Displacement of [3H]-prazosin from adrenergic alpha1A receptor (unknown origin) at 1 uM
[4] = test system: Mus musculus; test: Toxicity in mouse assessed as diarrhea at 100 mg/kg, ip by Irwin test; type: organism-based; settings: in vivo
[5] = species: Homo sapiens; test: Displacement of [125I]-epibatidine from nicotinic acetylcholine receptor (unknown origin) at 1 uM
[6] = target: B2 bradykinin receptor (Homo sapiens) (UniProt P30411); test: Displacement of [3H]-bradykinin from bradykinin B2 receptor (unknown origin) at 1 uM
[7] = target: Metabotropic glutamate receptor 5 (Homo sapiens) (UniProt P41594); test: Displacement of [3H]-quisqulic acid from metabotropic glutamate receptor 5 (unknown origin) at 1 uM
[8] = target: Gastrin-releasing peptide receptor (Homo sapiens) (UniProt P30550); test: Displacement of [125I]-(Tyr4)-bombesin from bombesin BB2 receptor (unknown origin) at 1 uM
[9] = test system: Mus musculus; test: Toxicity in mouse assessed as diarrhea at 30 mg/kg, ip measured for 60 mins by Irwin test; type: organism-based; settings: in vivo, 1 h
[10] = target: 5-hydroxytryptamine receptor 3A (Homo sapiens) (UniProt P46098); test: Displacement of [3H]-GR-65630 from 5-HT3 receptor (unknown origin) at 1 uM
[11] = target: Adenosine receptor A3 (Homo sapiens) (UniProt P0DMS8); test: Displacement of [125I]-AB-MECA from adenosine A3 receptor (unknown origin) at 1 uM
[12] = target: C-C chemokine receptor type 4 (Homo sapiens) (UniProt P51679); test: Displacement of [125I]-TARC from CCR4 receptor (unknown origin) at 1 uM
Sequence of C-C chemokine receptor type 4 (Homo sapiens) (P51679 whole entry): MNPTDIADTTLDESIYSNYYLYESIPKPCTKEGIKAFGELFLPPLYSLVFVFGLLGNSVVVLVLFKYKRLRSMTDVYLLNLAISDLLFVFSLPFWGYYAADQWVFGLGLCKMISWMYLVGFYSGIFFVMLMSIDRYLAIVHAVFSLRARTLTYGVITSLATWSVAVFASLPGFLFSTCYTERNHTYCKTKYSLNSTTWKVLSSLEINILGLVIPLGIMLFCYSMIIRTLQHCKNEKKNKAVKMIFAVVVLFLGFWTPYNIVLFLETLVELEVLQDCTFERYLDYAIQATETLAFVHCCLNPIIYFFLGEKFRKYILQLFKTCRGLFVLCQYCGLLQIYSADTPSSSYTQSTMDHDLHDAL

[13] = target: Alpha-1D adrenergic receptor (Homo sapiens) (UniProt P25100); test: Displacement of [3H]-prazosin from adrenergic alpha1D receptor (unknown origin) at 1 uM
Sequence of Alpha-1D adrenergic receptor (Homo sapiens) (P25100 whole entry): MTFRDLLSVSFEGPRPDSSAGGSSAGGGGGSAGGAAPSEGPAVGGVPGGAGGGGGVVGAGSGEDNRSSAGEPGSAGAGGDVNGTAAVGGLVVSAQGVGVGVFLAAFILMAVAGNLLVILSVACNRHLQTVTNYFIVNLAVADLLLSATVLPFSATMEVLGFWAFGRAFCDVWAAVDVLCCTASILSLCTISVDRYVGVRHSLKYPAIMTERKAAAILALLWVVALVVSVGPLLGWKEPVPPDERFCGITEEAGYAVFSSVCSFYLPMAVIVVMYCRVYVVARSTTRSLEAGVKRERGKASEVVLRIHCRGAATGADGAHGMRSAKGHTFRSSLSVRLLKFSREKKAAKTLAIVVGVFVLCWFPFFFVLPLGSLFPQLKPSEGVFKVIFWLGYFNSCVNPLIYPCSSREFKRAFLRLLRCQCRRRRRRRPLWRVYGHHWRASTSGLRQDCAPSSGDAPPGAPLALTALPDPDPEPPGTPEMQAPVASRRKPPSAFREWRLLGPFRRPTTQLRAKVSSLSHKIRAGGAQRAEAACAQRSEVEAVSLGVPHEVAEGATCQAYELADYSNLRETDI

[14] = target: Mu-type opioid receptor (Homo sapiens) (UniProt P35372); test: Displacement of [3H]-d iprenorphine from mu opioid receptor (unknown origin) at 1 uM
Sequence of Mu-type opioid receptor (Homo sapiens) (P35372 whole entry): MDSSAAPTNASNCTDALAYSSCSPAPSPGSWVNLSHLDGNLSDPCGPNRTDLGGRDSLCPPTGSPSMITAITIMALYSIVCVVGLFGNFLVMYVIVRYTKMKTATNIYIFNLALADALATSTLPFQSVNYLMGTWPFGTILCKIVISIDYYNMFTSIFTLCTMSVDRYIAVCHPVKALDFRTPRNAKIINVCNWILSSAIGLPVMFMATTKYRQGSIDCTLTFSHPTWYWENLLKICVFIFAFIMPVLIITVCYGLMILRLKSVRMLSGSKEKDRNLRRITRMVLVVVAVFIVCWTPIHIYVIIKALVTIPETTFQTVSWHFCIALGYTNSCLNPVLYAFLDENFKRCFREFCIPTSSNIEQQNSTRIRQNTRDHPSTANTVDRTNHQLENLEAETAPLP

[15] = species: Homo sapiens; test: Displacement of [3H]-CGP-39653 from glutamate […] receptor (unknown origin) at 1 uM
[16] = target: B1 bradykinin receptor (Homo sapiens) (UniProt P46663); test: Displacement of [3H]-(Des-Arg10)-Kallidin from bradykinin B1 receptor (unknown origin) at 1 uM
Sequence of B1 bradykinin receptor (Homo sapiens) (P46663 whole entry): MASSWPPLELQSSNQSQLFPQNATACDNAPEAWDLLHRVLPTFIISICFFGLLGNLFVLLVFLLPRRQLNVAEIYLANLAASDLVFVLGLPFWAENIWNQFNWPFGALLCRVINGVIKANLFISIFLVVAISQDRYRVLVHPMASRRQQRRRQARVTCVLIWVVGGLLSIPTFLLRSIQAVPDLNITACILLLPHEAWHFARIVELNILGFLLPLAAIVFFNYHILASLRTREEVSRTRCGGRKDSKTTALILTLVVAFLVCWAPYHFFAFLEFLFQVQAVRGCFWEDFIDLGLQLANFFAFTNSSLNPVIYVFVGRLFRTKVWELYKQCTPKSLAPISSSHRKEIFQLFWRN

[17] = species: Homo sapiens; test: Displacement of [3H]-flunitrazepam from […] GABAA receptor (unknown origin) at 1 uM
[18] = target: D(3) dopamine receptor (Homo sapiens) (UniProt P35462); test: Displacement of [3H]-sp iperone from dopamine D3 receptor (unknown origin) at 1 uM
Sequence of D(3) dopamine receptor (Homo sapiens) (P35462 whole entry): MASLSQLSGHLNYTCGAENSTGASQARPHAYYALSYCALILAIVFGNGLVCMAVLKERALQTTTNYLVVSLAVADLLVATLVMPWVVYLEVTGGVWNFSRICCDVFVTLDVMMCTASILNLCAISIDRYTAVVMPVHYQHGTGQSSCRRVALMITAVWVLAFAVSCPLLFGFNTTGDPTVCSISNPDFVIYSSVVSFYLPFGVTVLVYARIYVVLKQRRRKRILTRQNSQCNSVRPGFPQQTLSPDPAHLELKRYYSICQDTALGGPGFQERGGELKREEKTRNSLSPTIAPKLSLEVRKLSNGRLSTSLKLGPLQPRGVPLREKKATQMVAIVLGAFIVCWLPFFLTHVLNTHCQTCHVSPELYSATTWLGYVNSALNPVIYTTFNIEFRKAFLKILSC

[19] = target: Sigma non-opioid intracellular receptor 1 (Cavia porcellus) (UniProt Q60492); test: Agonist activity at sigma1 receptor assessed as potentiation of electrically stimulated contractions of the guinea pig vas deferens relative to (S)-3-PPP
Sequence of Sigma non-opioid intracellular receptor 1 (Cavia porcellus) (Q60492 whole entry): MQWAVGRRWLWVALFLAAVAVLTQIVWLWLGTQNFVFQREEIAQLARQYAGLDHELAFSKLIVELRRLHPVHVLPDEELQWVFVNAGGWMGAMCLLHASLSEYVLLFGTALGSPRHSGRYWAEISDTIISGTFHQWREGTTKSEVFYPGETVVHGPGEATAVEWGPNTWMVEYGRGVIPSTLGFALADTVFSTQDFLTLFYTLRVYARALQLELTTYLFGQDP

[20] = target: CYP2C9 (Homo sapiens, UniProt P11712); test: Inhibition on CYP2C9 (unknown origin) at 1 uM; type: ADME
[21] = target: Muscarinic acetylcholine receptor M3 (Homo sapiens) (UniProt P20309); test: Displacement of [3H]-N-methylscopolamine from muscarinic M3 receptor (unknown origin) at 1 uM
Sequence of Muscarinic acetylcholine receptor M3 (Homo sapiens) (P20309 whole entry, looked up): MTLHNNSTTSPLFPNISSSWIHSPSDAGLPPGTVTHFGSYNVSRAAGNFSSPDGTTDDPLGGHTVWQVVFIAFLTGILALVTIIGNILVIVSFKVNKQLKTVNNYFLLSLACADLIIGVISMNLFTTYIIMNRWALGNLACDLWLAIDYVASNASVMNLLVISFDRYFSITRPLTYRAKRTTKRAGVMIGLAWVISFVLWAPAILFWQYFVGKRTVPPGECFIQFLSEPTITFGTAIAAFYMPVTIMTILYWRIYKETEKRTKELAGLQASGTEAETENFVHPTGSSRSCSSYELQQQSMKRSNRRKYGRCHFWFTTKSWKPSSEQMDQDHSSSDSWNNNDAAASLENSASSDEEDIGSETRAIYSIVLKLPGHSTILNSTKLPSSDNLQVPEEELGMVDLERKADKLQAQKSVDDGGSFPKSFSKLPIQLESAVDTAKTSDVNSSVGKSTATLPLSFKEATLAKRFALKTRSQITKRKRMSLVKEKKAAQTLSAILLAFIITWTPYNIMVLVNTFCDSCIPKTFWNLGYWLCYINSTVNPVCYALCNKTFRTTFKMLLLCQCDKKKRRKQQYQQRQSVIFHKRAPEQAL

[22] = target: Alpha-1B adrenergic receptor (Homo sapiens) (UniProt P35368); test: Displacement of [3H]-prazosin from adrenergic alpha1B receptor (unknown origin) at 1 uM
[23] = target: Beta-2 adrenergic receptor (Homo sapiens) (UniProt P07550); test: Displacement of [3H]-CGP-12177 from adrenergic beta2 receptor (unknown origin) at 1 uM
[24] = target: Histamine H2 receptor (Homo sapiens, UniProt P25021); test: Displacement of [125I]-aminopotentidine receptor from histamine H2 receptor (unknown origin) at 1 uM
[25] = target: Glucocorticoid receptor (Homo sapiens) (UniProt P04150); test: Displacement of [3H]-dexamethasone from glucocorticoid receptor (unknown origin) at 1 uM
[26] = target: Histamine H1 receptor (Homo sapiens) (UniProt P35367); test: Displacement of [3H]-Pyrilamine from histamine H1 receptor (unknown origin) at 1 uM
[27] = target: Epidermal growth factor receptor (Homo sapiens) (UniProt P00533); test: Displacement of [125I]-EGF from EGF receptor (unknown origin) at 1 uM
Sequence of Epidermal growth factor receptor (Homo sapiens) (P00533 whole entry): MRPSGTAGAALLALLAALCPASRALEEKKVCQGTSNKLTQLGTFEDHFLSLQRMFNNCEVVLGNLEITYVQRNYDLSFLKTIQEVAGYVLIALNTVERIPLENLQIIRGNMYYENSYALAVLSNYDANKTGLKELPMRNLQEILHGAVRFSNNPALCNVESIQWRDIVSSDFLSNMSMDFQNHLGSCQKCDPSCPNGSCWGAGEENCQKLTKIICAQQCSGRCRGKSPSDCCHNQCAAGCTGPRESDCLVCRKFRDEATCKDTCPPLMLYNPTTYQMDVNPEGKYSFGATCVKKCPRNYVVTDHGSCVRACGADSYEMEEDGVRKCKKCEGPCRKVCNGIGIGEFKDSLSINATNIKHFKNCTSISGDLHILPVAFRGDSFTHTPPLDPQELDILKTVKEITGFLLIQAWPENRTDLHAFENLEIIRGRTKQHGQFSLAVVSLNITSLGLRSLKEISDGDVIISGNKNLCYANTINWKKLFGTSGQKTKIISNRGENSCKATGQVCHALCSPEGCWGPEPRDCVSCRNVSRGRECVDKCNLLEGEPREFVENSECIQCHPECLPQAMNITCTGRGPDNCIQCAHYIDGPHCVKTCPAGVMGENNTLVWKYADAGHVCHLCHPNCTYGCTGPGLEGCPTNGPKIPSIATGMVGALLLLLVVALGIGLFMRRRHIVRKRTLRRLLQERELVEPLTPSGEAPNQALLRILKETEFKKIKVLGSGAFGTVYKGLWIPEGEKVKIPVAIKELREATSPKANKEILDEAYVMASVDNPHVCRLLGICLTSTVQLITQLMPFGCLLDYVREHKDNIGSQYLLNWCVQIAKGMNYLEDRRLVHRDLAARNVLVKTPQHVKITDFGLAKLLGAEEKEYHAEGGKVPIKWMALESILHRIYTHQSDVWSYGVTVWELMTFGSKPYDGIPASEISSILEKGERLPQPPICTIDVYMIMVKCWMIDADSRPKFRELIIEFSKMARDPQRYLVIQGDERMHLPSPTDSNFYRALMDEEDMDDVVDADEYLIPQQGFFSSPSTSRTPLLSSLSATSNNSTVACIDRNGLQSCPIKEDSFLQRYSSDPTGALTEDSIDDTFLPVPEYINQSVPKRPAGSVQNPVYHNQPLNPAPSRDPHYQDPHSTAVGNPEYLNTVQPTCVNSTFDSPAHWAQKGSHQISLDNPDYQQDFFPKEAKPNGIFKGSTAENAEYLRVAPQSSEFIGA

[28] = Displacement of [3H]-(+)-MK 801 from PCP binding site of NMDA receptor in pig brain cortex membranes after 120 mins by liquid scintillation spectrometry; type: cell membranes, Sus scrofa
[29] = target: Adenosine receptor A2a (Homo sapiens) (UniProt P29274); test: Displacement of [3H]-CGS21680 from adenosine A2A receptor (unknown origin) at 1 uM
[30] = target: Endothelin receptor type B (Homo sapiens) (UniProt P24530); test: Displacement of [125I]-endothelin-1 from endothelin ETB receptor (unknown origin) at 1 uM
[31] = test system: Mus musculus; test: Toxicity in mouse assessed as writhing at 100 mg/kg, ip by Irwin test; type: organism-based; settings: in vivo
[32] = target: Neuropeptide Y receptor type 2 (Homo sapiens) (UniProt P49146); test: Displacement of [125I]-Peptide YY from neuropeptide Y Y2 receptor (unknown origin) at 1 uM
Sequence of Neuropeptide Y receptor type 2 (Homo sapiens) (P49146 whole entry): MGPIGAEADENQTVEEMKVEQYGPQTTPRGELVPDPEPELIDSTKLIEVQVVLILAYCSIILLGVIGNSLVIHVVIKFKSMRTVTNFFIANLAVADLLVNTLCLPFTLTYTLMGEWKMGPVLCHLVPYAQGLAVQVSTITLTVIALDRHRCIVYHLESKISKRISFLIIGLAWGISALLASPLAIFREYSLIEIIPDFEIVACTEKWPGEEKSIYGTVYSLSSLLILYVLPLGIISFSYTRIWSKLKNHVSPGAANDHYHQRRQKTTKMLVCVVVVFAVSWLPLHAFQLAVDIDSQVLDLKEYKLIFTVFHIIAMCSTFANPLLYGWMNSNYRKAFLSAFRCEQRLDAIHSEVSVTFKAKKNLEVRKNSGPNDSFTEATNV

[33] = target: D(1A) dopamine receptor (Homo sapiens) (UniProt P21728); test: Displacement of [3H]-SCH-23390 from dopamine D1 receptor (unknown origin) at 1 uM
Sequence of D(1A) dopamine receptor (Homo sapiens) (P21728 whole entry): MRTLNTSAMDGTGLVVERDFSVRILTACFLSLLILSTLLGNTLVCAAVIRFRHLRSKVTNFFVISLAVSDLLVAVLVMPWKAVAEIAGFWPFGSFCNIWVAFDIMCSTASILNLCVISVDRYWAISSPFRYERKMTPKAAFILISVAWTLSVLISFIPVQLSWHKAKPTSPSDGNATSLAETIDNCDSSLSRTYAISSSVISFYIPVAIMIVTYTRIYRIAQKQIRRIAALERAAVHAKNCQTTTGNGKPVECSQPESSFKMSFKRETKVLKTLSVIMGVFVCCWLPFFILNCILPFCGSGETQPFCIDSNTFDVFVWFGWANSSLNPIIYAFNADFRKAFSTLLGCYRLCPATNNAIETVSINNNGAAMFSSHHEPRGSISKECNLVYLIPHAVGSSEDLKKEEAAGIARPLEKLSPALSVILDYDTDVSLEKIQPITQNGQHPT

**Q.** Which inhibition [1] does the source give for COc1ccc(CN2CCCN(Cc3ccccc3)[C@@H](C)C2)cc1 here?
**A.** inactive

**Q.** What about the inhibition [2] of the same compound?
**A.** inactive

**Q.** And the inhibition [3]?
**A.** inactive

**Q.** And the Activity [4]?
**A.** Toxic

**Q.** What about the inhibition [5] of the same compound?
**A.** inactive

**Q.** What about the inhibition [6] of the same compound?
**A.** inactive

**Q.** What about the inhibition [7] of the same compound?
**A.** inactive

**Q.** And the inhibition [8]?
**A.** inactive

**Q.** And the Activity [9]?
**A.** Toxic

**Q.** And the inhibition [10]?
**A.** inactive

**Q.** What about the inhibition [11] of the same compound?
**A.** inactive

**Q.** What about the inhibition [12] of the same compound?
**A.** inactive

**Q.** And the inhibition [13]?
**A.** inactive

**Q.** And the inhibition [14]?
**A.** inactive

**Q.** And the inhibition [15]?
**A.** inactive

**Q.** And the inhibition [16]?
**A.** inactive

**Q.** What about the inhibition [17] of the same compound?
**A.** inactive

**Q.** What about the inhibition [18] of the same compound?
**A.** inactive

**Q.** And the Activity [19]?
**A.** Dose-dependent effect

**Q.** What about the inhibition at 1 µM [20] of the same compound?
**A.** 0%

**Q.** What about the inhibition [21] of the same compound?
**A.** inactive

**Q.** And the inhibition [22]?
**A.** inactive

**Q.** What about the inhibition [23] of the same compound?
**A.** inactive

**Q.** What about the inhibition [24] of the same compound?
**A.** 50%

**Q.** What about the inhibition [25] of the same compound?
**A.** inactive

**Q.** What about the inhibition [26] of the same compound?
**A.** inactive

**Q.** And the inhibition [27]?
**A.** inactive

**Q.** And the IC50 [28]?
**A.** > 1000 nM

**Q.** And the inhibition [29]?
**A.** inactive

**Q.** And the inhibition [30]?
**A.** inactive

**Q.** And the Activity [31]?
**A.** Toxic

**Q.** What about the inhibition [32] of the same compound?
**A.** inactive

**Q.** What about the inhibition [33] of the same compound?
**A.** inactive
